Among the data in patent US20220119411A1, “IMMUNOMODULATORS, COMPOSITIONS AND METHODS THEREOF” (BETTA PHARMACEUTICALS CO., LTD, priority 2018, published 2022) are IC50 values, retold here.

The IC50 is the concentration at which inhibition is half-maximal.

The target of this assay is T1, PD-1/PD-L1 protein/protein interaction (Homo sapiens, UniProt Q9NZQ7).
T1 construct: Recombinant human PD-L1 protein (19-238) with a His-tag at the C-terminus; purchased AcroBiosystems PD1-H5229 (PD-L1); PD1-H5257 (PD-1)
T1 sequence (Q9NZQ7 19-238): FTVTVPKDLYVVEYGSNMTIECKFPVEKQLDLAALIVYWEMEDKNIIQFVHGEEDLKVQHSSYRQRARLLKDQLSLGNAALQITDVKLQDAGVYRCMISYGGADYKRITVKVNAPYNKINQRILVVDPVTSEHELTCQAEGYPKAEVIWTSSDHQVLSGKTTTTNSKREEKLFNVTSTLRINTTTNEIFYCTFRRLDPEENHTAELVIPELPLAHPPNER
Nature of the assay: PD-1/PD-L1 homogenous time-resolved fluorescence (HTRF) binding assay. Particulars: recombinant human PD-L1 (19-238)-His 10 nM, human PD-1 (25-167)-Fc 3 nM, 25° C., PBS pH 7.4. Here is the method:
Resolved Fluorescence (HTRF) Binding Assay
The assays were conducted in a standard black 384-well polystyrene plate with a final volume of 20 μL. Inhibitors were first serially diluted in DMSO and then added to the plate wells before the addition of other reaction components. The final concentration of DMSO in the assay was 1%. The assays were carried out at 25° C. in the PBS buffer (pH 7.4) with 0.05% Tween-20 and 0.1% BSA. Recombinant human PD-L1 protein (19-238) with a His-tag at the C-terminus was purchased from AcroBiosy stems (PD1-H5229). Recombinant human PD-1 protein (25-167) with Fc tag at the C-terminus was also purchased from AcroBiosystems (PD1-H5257). PD-L1 and PD-1 proteins were diluted in the assay buffer and 10 μL was added to the plate well. Plates were centrifuged and proteins were preincubated with inhibitors for 40 min. The incubation was followed by the addition of 10 μL of HTRF detection buffer supplemented with Europium cryptate-labeled anti-human IgG (PerkinElmer-AD0212) specific for Fc and anti-His antibody conjugated to SureLight®—Allophycocyanin (APC, PerkinElmer-AD0059H). After centrifugation, the plate was incubated at 25° C. for 60 min. Before reading on a PHERAstar FS plate reader (665 nm/620 nm ratio). Final concentrations in the assay were—3 nM PD1, 10 nM PD-L1, 1 nM europium anti-human IgG and 20 nM anti-His-Allophycocyanin. IC50 determination was performed by fitting the curve of percent control activity versus the log of the inhibitor concentration using the GraphPad Prism 5.0 software.
Data obtained for the Example compounds using the PD-1/PD-L1 homogenous time-resolved fluorescence (HTRF) binding assay described in Example A is provided in Table 2.
Background: Time-resolved FRET reads energy transfer from a long-lived donor to a nearby acceptor.
For the molecule `Cc1c(NC(=O)CCN2CCC(O)C2)cccc1-c1cccc2c1CCN2C(=O)c1nc2c(o1)CN(CC(=O)O)CC2` (stereo not drawn) [Example 22, 2-(2-(4-(3-(3-(3-hydroxypyrrolidin-1-yl)propanamido)-2-methylphenyl)indoline-1-carbonyl)-6,7-dihydrooxazolo[5,4-c]pyridin-5(4H)-yl)acetic acid], the IC50 was not above 25 nM.

Consider `Cc1c(OCCCN2CCOCC2)cccc1-c1cccc2c1CCN2C(=O)c1nc2c(o1)CN(CC(=O)O)CC2` [Example 23, 2-(2-(4-(2-methyl-3-(3-morpholinopropoxy)phenyl)indoline-1-carbonyl)-6,7-dihydrooxazolo[5,4-c]pyridin-5(4H)-yl)acetic acid], for which the IC50 was not above 25 nM.

On to `O=C(O)CN1CCc2nc(C(=O)N3CCc4c(-c5cccc6c5CCN6C(=O)c5nccs5)cccc43)sc2C1` [Example 24, 2-(2-(1′-(thiazole-2-carbonyl)-[4,4′-biindoline]-1-carbonyl)-6,7-dihydrothiazolo[5,4-c]pyridin-5(4H)-yl)acetic acid], for which the IC50 lay in the range of 25 to 100 nM.

Regarding `O=C(O)CN1CCc2nc(C(=O)N3CCc4c(-c5cccc6c5CCN6C(=O)c5ccccn5)cccc43)sc2C1` [Example 25, 2-(2-(1′-picolinoyl-[4,4′-biindoline]-1-carbonyl)-6,7-dihydrothiazolo[5,4-c]pyridin-5(4H)-yl)acetic acid], the IC50 fell in the range of 25 to 100 nM.

With `Cc1c(NC(=O)c2nccs2)cccc1-c1cccc2c1CCN2C(=O)c1nc2c(s1)CN(CC(=O)O)CC2` [Example 26, 2-(2-(4-(2-methyl-3-(thiazole-2-carboxamido)phenyl)indoline-1-carbonyl)-6,7-dihydrothiazolo[5,4-c]pyridin-5(4H)-yl)acetic acid], the IC50 is not above 25 nM.

Take `Cc1c(NC(=O)c2ccccn2)cccc1-c1cccc2c1CCN2C(=O)c1nc2c(s1)CN(CC(=O)O)CC2` [Example 27, 2-(2-(4-(2-methyl-3-(picolinamido)phenyl)indoline-1-carbonyl)-6,7-dihydrothiazolo[5,4-c]pyridin-5(4H)-yl)acetic acid]: the IC50 was not above 25 nM.

On to `O=C(O)CN1CCc2nc(C(=O)N3CCCc4c(-c5ccccc5)cccc43)sc2C1` [Example 28, 2-(2-(5-phenyl-1,2,3,4-tetrahydroquinoline-1-carbonyl)-6,7-dihydrothiazolo[5,4-c]pyridin-5(4H)-yl)acetic acid], for which the IC50 lay within 25 to 100 nM.

With `Cc1c(Nc2nccc3nccnc23)cccc1-c1cccc2c1CCN2C(=O)c1nc2c(s1)CN(CC(=O)O)CC2` [Example 29, 2-(2-(4-(2-methyl-3-(pyrido[3,4-b]pyrazin-5-ylamino)phenyl)indoline-1-carbonyl)-6,7-dihydrothiazolo[5,4-c]pyridin-5(4H)-yl)acetic acid], the IC50 lay in the range of 25 to 100 nM.

As to `Cn1ncc2c(-c3cccc4c3CCN4C(=O)c3nc4c(s3)CN(CC(=O)O)CC4)cccc21` [Example 30, 2-(2-(4-(1-methyl-1H-indazol-4-yl)indoline-1-carbonyl)-6,7-dihydrothiazolo[5,4-c]pyridin-5(4H)-yl)acetic acid], the IC50 was not above 25 nM.

For the molecule `Cc1c(NC(=O)c2nc3c(n2C)CNCC3)cccc1-c1cccc2c1CCN2C(=O)c1nc2c(s1)CN(CC(=O)O)CC2` [Example 31, 2-(2-(4-(2-methyl-3-(3-methyl-4,5,6,7-tetrahydro-3H-imidazo[4,5-c]pyridine-2-carboxamido)phenyl)indoline-1-carbonyl)-6,7-dihydrothiazolo[5,4-c]pyridin-5(4H)-yl)acetic acid], the IC50 was not above 25 nM.

As to `Cc1c(NC(=O)c2nc3c(n2C)CCNC3)cccc1-c1cccc2c1CCN2C(=O)c1nc2c(s1)CN(CC(=O)O)CC2` [Example 32, 2-(2-(4-(2-methyl-3-(1-methyl-4,5,6,7-tetrahydro-1H-imidazo[4,5-c]pyridine-2-carboxamido)phenyl)indoline-1-carbonyl)-6,7-dihydrothiazolo[5,4-c]pyridin-5(4H)-yl)acetic acid], the IC50 is not above 25 nM.

Take `Cc1c(NC(=O)CCN2CCC(O)C2)cccc1-c1cccc2c1CCN2C(=O)c1nc2c(n1C)CN(CC(=O)O)CC2` (stereo not drawn) [Example 33, 2-(2-(4-(3-(3-(3-hydroxypyrrolidin-1-yl)propanamido)-2-methylphenyl)indoline-1-carbonyl)-3-methyl-3,4,6,7-tetrahydro-5H-imidazo[4,5-c]pyridin-5-yl)acetic acid]: the IC50 was not above 25 nM.

Consider `Cc1c(NC(=O)CCN2CCC(O)C2)cccc1-c1cccc2c1CCN2C(=O)c1nc2c(n1C)CNCC2` (stereo not drawn) [Example 34, 3-(3-hydroxypyrrolidin-1-yl)-N-(2-methyl-3-(1-(3-methyl-4,5,6,7-tetrahydro-3H-imidazo[4,5-c]pyridine-2-carbonyl)indolin-4-yl)phenyl)propanamide], for which the IC50 was not above 25 nM.

Regarding `Cn1c(C(=O)N2CCc3c(-c4cccc5c4CCN5C(=O)CCN4CCC(O)C4)cccc32)nc2c1CN(CC(=O)O)CC2` (stereo not drawn) [Example 35, 2-(2-(1′-(3-(3-hydroxypyrrolidin-1-yl)propanoyl)-[4,4′-biindoline]-1-carbonyl)-3-methyl-3,4,6,7-tetrahydro-5H-imidazo[4,5-c]pyridin-5-yl)acetic acid], the IC50 was not above 25 nM.

Regarding `Cc1c(OCCCN2CCC(O)C2)cccc1-c1cccc2c1CCN2C(=O)c1nc2c(n1C)CN(CC(=O)O)CC2` (stereo not drawn) [Example 36, 2-(2-(4-(3-(3-(3-hydroxypyrrolidin-1-yl)propoxy)-2-methylphenyl)indoline-1-carbonyl)-3-methyl-3,4,6,7-tetrahydro-5H-imidazo[4,5-c]pyridin-5-yl)acetic acid], the half-inhibitory concentration (IC50) is not above 25 nM.

On to `Cc1c(OCCCN2CCC(O)C2)cccc1-c1cccc2c1CCN2C(=O)c1nc2c(n1C)CCN(CC(=O)O)C2` (stereo not drawn) [Example 37, 2-(2-(4-(3-(3-(3-hydroxypyrrolidin-1-yl)propoxy)-2-methylphenyl)indoline-1-carbonyl)-1-methyl-1,4,6,7-tetrahydro-5H-imidazo[4,5-c]pyridin-5-yl)acetic acid], for which the IC50 was not above 25 nM.

Consider `Cc1c(OCCCN2CCC(O)C2)cccc1-c1cccc2c1CCN2C(=O)c1nc2c(n1C)CCNC2` (stereo not drawn) [Example 38, (4-(3-(3-(3-hydroxypyrrolidin-1-yl)propoxy)-2-methylphenyl)indolin-1-yl)(1-methyl-4,5,6,7-tetrahydro-1H-imidazo[4,5-c]pyridin-2-yl)methanone], for which the IC50 is not above 25 nM.

Regarding `Cc1c(OCCCN2CCC(O)C2)cccc1-c1cccc2c1CCN2C(=O)c1nc2c(n1C)CNCC2` (stereo not drawn) [Example 39, (4-(3-(3-(3-hydroxypyrrolidin-1-yl)propoxy)-2-methylphenyl)indolin-1-yl)(3-methyl-4,5,6,7-tetrahydro-3H-imidazo[4,5-c]pyridin-2-yl)methanone], the IC50 was not above 25 nM.

Take `Cn1c(C(=O)N2CCc3c(-c4cccc5c4CCN5CCCN4CCC(O)C4)cccc32)nc2c1CCNC2` (stereo not drawn) [Example 40, (1′-(3-(3-hydroxypyrrolidin-1-yl)propyl)-[4,4′-biindolin]-1-yl)(1-methyl-4,5,6,7-tetrahydro-1H-imidazo[4,5-c]pyridin-2-yl)methanone]: the IC50 was 25 to 100 nM.

On to `Cc1c(OCCCN2CCC(O)C2)cccc1-c1cccc2c1CCN2C(=O)c1cn2c(n1)CNCC2` (stereo not drawn) [Example 41, (4-(3-(3-(3-hydroxypyrrolidin-1-yl)propoxy)-2-methylphenyl)indolin-1-yl)(5,6,7,8-tetrahydroimidazo[1,2-a]pyrazin-2-yl)methanone], for which the IC50 was not above 25 nM.

Take `O=C(CCN1CCC(O)C1)N1CCc2c(-c3cccc4c3CCN4C(=O)c3cn4c(n3)CNCC4)cccc21` (stereo not drawn) [Example 42, 3-(3-hydroxypyrrolidin-1-yl)-1-(1′-(5,6,7,8-tetrahydroimidazo[1,2-a]pyrazine-2-carbonyl)-[4,4′-biindolin]-1-yl)propan-1-one]: the IC50 is not above 25 nM.

As to `Cc1c(OCCCN2CCC(O)C2)cccc1-c1cccc2c1CCN2C(=O)c1nnc(CN)s1` (stereo not drawn) [Example 43, (5-(aminomethyl)-1,3,4-thiadiazol-2-yl)(4-(3-(3-(3-hydroxypyrrolidin-1-yl)propoxy)-2-methylphenyl)indolin-1-yl)methanone], the concentration for half-maximal inhibition (IC50) is not above 25 nM.

Turning to `Cc1c(OCCCN2CCC(O)C2)cccc1-c1cccc2c1CCN2C(=O)c1nnc([C@@H]2CCCN2)s1` (stereo partly drawn) [Example 44, (4-(3-(3-(3-hydroxypyrrolidin-1-yl)propoxy)-2-methylphenyl)indolin-1-yl)(5-((S)-pyrrolidin-2-yl)-1,3,4-thiadiazol-2-yl)methanone], the IC50 was not above 25 nM.

As to `Cc1c(OCCCN2CCCC2)cccc1-c1cccc2c1CCN2C(=O)c1ncc(CNCCO)s1` [Example 45, (5-(((2-hydroxyethyl)amino)methyl)thiazol-2-yl)(4-(2-methyl-3-(3-(pyrrolidin-1-yl)propoxy)phenyl)indolin-1-yl)methanone], the IC50 was not above 25 nM.
